In publication PMC6325233, “A Novel Actin Binding Drug with In Vivo Efficacy” (Antimicrobial Agents and Chemotherapy, 2018):

Columns and labels:
Format in all cases: cell-based
[1] = test system: Candida albicans strain ATCC 66027; experiment: Hyphal induction (morphology switching) assay; conditions: for % hyphae / % yeast: 1 µg/ml
Method: The hyphal induction assay was performed as previously reported with minor modifications ([58]). Candida albicans strain ATCC 66027 was grown in yeast extract-peptone-dextrose (YPD) medium at 30°C for 48 h to reach saturation with an OD600 of 17 to 19. Cells were diluted into fresh Spider medium (1% nutrient broth, 1% mannitol, 0.2% K2HPO4) to obtain an OD600 of 0.05 (∼0.5 × 10^6 to 1 × 10^6 cells/ml) and incubated at 37°C with shaking to induce hyphal formation. Immediately prior to the 37°C incubation, occidiofungin (1 µg/ml; 0.5× MIC) or an equal volume of DMSO was added to the cultures. Aliquots were removed at 0-, 1-, 2-, 4-, and 6-h time points and fixed in 3.7% formaldehyde for later analysis of cell morphology by light microscopy. More than 200 cells were examined for each time point, and cells were scored as having either a yeast or filamentous form, with cells showing any outgrowth considered filamentous. DNA segregation assays were performed using a mid-log culture of S. cerevisiae (BY4743, diploid) and C. albicans (ATCC 66027). The cultures were diluted in fresh YPD medium to obtain OD600s of 0.095 (∼1 × 10^6 to 1.5 × 10^6 cells/ml) and 0.05 (0.5 × 10^6 to 0.8 × 10^6 cells/ml), respectively. A blank vehicle control (DMSO) or occidiofungin (1 µg/ml; 0.5× MIC) was added, and the cultures were placed at 30°C with shaking. Samples were removed at 0.5, 1, and 2 h, and the cells fixed by adding formaldehyde (3.7%). The cells were washed in phosphate-buffered saline (PBS) and permeabilized by adding an equivalent volume of PBS containing 0.2% Triton X-100 for 30 min at room temperature. The cells were washed thrice in PBS, added to concanavalin A-treated glass slides, and overlaid with Vectashield plus DAPI (4′,6-diamidino-2-phenylindole). Images were viewed using a Nikon 50i fluorescence microscope with a 100× oil immersion objective and DAPI filter. Cells were scored on the basis of bud morphology and DNA location. One-way analyses of variance (ANOVAs) with post hoc Tukey’s honestly significant difference (HSD) testing were used to determine statistically significant differences in the distributions between treated and untreated cells. In addition, FM-464 uptake assays were used to observe endocytosis. Three 1-ml aliquots of S. pombe (OD600 of 0.6 to 0.8) were treated with 1 μl DMSO, 0.5 μg/ml (0.5× MIC), or 1 μg/ml (1× MIC) of native occidiofungin for 30 min at 30°C. The cells were washed thrice with PBS and resuspended in YPD medium containing […] FM-464 (Thermo Fisher Scientific). The cells were incubated for 60 min at 30°C, followed by two washes in PBS before visualizing on an Olympus FV1000 confocal microscope with a 40×/0.9 dry objective. Lastly, actin polymerization and depolymerization assays were performed using the Actin polymerization biochem kit (catalog number BK003; Cytoskeleton, Inc.) according to the manufacturer’s instructions.

[2] = test system: Aspergillus fumigatus 28436; experiment: MIC susceptibility testing; conditions: CLSI M38-A2
Method: (§1) Occidiofungin was purified from a liquid culture of Burkholderia contaminans MS14 as previously described ([21]). MIC susceptibility testing was performed according to the CLSI M27-A3 and M38-A2 standards for the susceptibility testing of yeasts and filamentous fungi, respectively. S. cerevisiae deletion mutants were obtained from the commercially available BY4741 deletion library (Thermo Scientific).

Fusarium solani 18749 = experiment: MIC susceptibility testing; conditions: CLSI M38-A2
Method: as §1

Candida tropicalis 28272 = experiment: MIC susceptibility testing; conditions: CLSI M27-A3
Method: as §1

Candida albicans 28200 = experiment: MIC susceptibility testing; conditions: CLSI M27-A3
Method: as §1

Candida glabrata 28271 = experiment: MIC susceptibility testing; conditions: CLSI M27-A3
Method: as §1

Candida tropicalis 28478 = experiment: MIC susceptibility testing; conditions: CLSI M27-A3
Method: as §1

[3] = test system: Trichophyton mentagrophytes 28556; experiment: MIC susceptibility testing; conditions: CLSI M38-A2; 96 hours
Method: as §1

[4] = test system: Candida parapsilosis 28364; experiment: MIC susceptibility testing; conditions: CLSI M27-A3
Method: as §1

[5] = test system: Trichophyton mentagrophytes 28641; experiment: MIC susceptibility testing; conditions: CLSI M38-A2; 96 hours
Method: as §1

[6] = test system: Trichophyton rubrum 28659; experiment: MIC susceptibility testing; conditions: CLSI M38-A2; 96 hours
Method: as §1

[7] = test system: Mucor circinelloides 19445; experiment: MIC susceptibility testing; conditions: CLSI M38-A2
Method: as §1

[8] = T=1hr, replicate 1, untreated 51.7/48.3
[9] = T=1hr, replicate 2, untreated 72.7/27.3
[10] = T=1hr, replicate 3, untreated 43.6/56.4
[11] = T=2hr, replicate 1, untreated 23.4/76.6
[12] = T=2hr, replicate 2, untreated 15.6/84.4
[13] = T=2hr, replicate 3, untreated 14.2/85.8
[14] = T=4hr, replicate 1, untreated 7.1/92.9
[15] = T=4hr, replicate 2, untreated 17.4/82.6
[16] = T=4hr, replicate 3, untreated 13.2/86.8
[17] = T=6hr, replicate 2, untreated 52.2/47.8
[18] = T=6hr, replicate 3, untreated 21.1/78.9

Substance: occidiofungin
- % hyphae ([1]; T=0hr, replicate 1): 0%
- % yeast ([1]; T=0hr, replicate 1): 100%
- % hyphae ([1]; T=0hr, replicate 2): 0%
- % yeast ([1]; T=0hr, replicate 2): 100%
- % hyphae ([1]; T=0hr, replicate 3): 0%
- % yeast ([1]; T=0hr, replicate 3): 100%
- % hyphae [1, 8]: 0%
- % yeast [1, 8]: 100%
- % hyphae [1, 9]: 0%
- % yeast [1, 9]: 100%
- % hyphae [1, 10]: 0%
- % yeast [1, 10]: 100%
- % hyphae [1, 11]: 0%
- % yeast [1, 11]: 100%
- % hyphae [1, 12]: 0%
- % yeast [1, 12]: 100%
- % hyphae [1, 13]: 0%
- % yeast [1, 13]: 100%
- % hyphae [1, 14]: 0.5%
- % yeast [1, 14]: 99.5%
- % hyphae [1, 15]: 0%
- % yeast [1, 15]: 100%
- % hyphae [1, 16]: 0.2%
- % yeast [1, 16]: 99.8%
- % hyphae [1, 17]: 0%
- % yeast [1, 17]: 100%
- % hyphae [1, 18]: 0%
- % yeast [1, 18]: 100%
- effect on hyphal formation ([1]; subinhibitory concentration (1 µg/ml; 0.5× MIC)): blocked hyphal formation
- MIC, 50% inhibition ([2]; 24 hours): 2 µg/mL
- MIC, 100% inhibition ([2]; 24 hours): 4 µg/mL
- MIC, 50% inhibition ([2]; 48 hours): 2 µg/mL
- MIC, 100% inhibition ([2]; 48 hours): 4 µg/mL
- MIC, 50% inhibition (Fusarium solani 18749; 24 hours): 2 µg/mL
- MIC, 100% inhibition (Fusarium solani 18749; 24 hours): 4 µg/mL
- MIC, 50% inhibition (Fusarium solani 18749; 48 hours): 2 µg/mL
- MIC, 100% inhibition (Fusarium solani 18749; 48 hours): 4 µg/mL
- MIC, 50% inhibition (Candida tropicalis 28272; 24 hours): 4 µg/mL
- MIC, 100% inhibition (Candida tropicalis 28272; 24 hours): 8 µg/mL
- MIC, 50% inhibition (Candida tropicalis 28272; 48 hours): 4 µg/mL
- MIC, 100% inhibition (Candida tropicalis 28272; 48 hours): 8 µg/mL
- MIC, 50% inhibition (Candida albicans 28200; 24 hours): 4 µg/mL
- MIC, 100% inhibition (Candida albicans 28200; 24 hours): 8 µg/mL
- MIC, 50% inhibition (Candida albicans 28200; 48 hours): 4 µg/mL
- MIC, 100% inhibition (Candida albicans 28200; 48 hours): 8 µg/mL
- MIC, 50% inhibition (Candida glabrata 28271; 24 hours): 4 µg/mL
- MIC, 100% inhibition (Candida glabrata 28271; 24 hours): 8 µg/mL
- MIC, 50% inhibition (Candida glabrata 28271; 48 hours): 4 µg/mL
- MIC, 100% inhibition (Candida glabrata 28271; 48 hours): 8 µg/mL
- MIC, 50% inhibition (Candida tropicalis 28478; 24 hours): 4 µg/mL
- MIC, 100% inhibition (Candida tropicalis 28478; 24 hours): 8 µg/mL
- MIC, 50% inhibition (Candida tropicalis 28478; 48 hours): 4 µg/mL
- MIC, 100% inhibition (Candida tropicalis 28478; 48 hours): 8 µg/mL
- MIC, 80% inhibition [3]: 1 µg/mL
- MIC, 100% inhibition [3]: 2 µg/mL
- MIC, 50% inhibition ([4]; 24 hours): 4 µg/mL
- MIC, 100% inhibition ([4]; 24 hours): 8 µg/mL
- MIC, 50% inhibition ([4]; 48 hours): 4 µg/mL
- MIC, 100% inhibition ([4]; 48 hours): 8 µg/mL
- MIC, 80% inhibition [5]: 1 µg/mL
- MIC, 100% inhibition [5]: 2 µg/mL
- MIC, 80% inhibition [6]: 1 µg/mL
- MIC, 100% inhibition [6]: 2 µg/mL
- MIC, 50% inhibition ([7]; 24 hours): 4 µg/mL
- MIC, 100% inhibition ([7]; 24 hours): 8 µg/mL
- MIC, 50% inhibition ([7]; 48 hours): 4 µg/mL
- MIC, 100% inhibition ([7]; 48 hours): 8 µg/mL
